Reference: ChEMBL document CHEMBL4715821, “Discovery of 4-ethoxy-7H-pyrrolo[2,3-d]pyrimidin-2-amines as potent, selective and orally bioavailable LRRK2 inhibitors” (Bioorg Med Chem Lett, 2018)
In brackets after ≈: the same amount, converted by molar mass.

What was measured:
[1] = molecular target: Dual specificity tyrosine-phosphorylation-regulated kinase 1B (Homo sapiens) (UniProt Q9Y463); assay: Inhibition of wild-type human full length DYRK1B (M1 to S629 residues) expressed in bacterial expression system assessed as residual activity at 1 uM by Kinomescan method relative to control
[2] = molecular target: Mitogen-activated protein kinase kinase kinase kinase 1 (Homo sapiens) (UniProt Q92918); assay: Inhibition of wild-type human full length HPK1 (M1 to R799 residues) expressed in bacterial expression system assessed as residual activity at 1 uM by Kinomescan method relative to control
Chain of Mitogen-activated protein kinase kinase kinase kinase 1 (Homo sapiens) (Q92918 whole entry, looked up, the tested form may be a part): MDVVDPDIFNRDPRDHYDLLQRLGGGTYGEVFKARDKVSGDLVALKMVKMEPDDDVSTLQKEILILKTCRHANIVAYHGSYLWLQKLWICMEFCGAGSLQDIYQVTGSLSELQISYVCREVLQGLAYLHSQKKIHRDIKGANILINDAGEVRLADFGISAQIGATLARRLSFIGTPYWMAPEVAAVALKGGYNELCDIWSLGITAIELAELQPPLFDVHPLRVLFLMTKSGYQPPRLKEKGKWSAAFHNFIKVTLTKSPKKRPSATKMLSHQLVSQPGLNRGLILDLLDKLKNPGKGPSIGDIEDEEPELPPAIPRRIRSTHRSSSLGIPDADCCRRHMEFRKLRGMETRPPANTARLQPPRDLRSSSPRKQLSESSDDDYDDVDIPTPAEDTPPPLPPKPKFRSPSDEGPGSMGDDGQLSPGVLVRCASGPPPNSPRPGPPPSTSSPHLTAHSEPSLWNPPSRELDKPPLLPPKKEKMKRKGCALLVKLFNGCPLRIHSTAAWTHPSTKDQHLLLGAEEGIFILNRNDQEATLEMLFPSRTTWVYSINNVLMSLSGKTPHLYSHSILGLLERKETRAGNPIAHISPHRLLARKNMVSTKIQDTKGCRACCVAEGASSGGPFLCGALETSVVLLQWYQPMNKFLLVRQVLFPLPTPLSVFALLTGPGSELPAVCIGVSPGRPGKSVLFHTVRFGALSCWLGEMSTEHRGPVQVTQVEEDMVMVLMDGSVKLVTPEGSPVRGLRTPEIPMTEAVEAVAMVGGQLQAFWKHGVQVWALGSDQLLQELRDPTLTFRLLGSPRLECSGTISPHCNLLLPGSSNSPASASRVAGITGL

[3] = molecular target: Serine/threonine-protein kinase Nek6 (Homo sapiens) (UniProt Q9HC98); assay: Inhibition of wild-type human full length NEK6 (M8 to T313 residues) expressed in bacterial expression system assessed as residual activity at 1 uM by Kinomescan method relative to control
[4] = molecular target: cGMP-dependent protein kinase 1 (Homo sapiens) (UniProt Q13976); assay: Inhibition of PKG1beta (unknown origin) assessed as residual activity at 1 uM by Kinomescan method relative to control
[5] = molecular target: Insulin-like growth factor 1 receptor (Homo sapiens) (UniProt P08069); assay: Inhibition of wild-type human partial length IGF1R (L972 to D1294 residues) expressed in bacterial expression system assessed as residual activity at 1 uM by Kinomescan method relative to control
[6] = molecular target: CDK2/Cyclin A2 (Homo sapiens) (UniProt P24941+P20248); assay: Inhibition of wild-type human full length CDK2 (M1 to L298 residues)/Cyclin A expressed in bacterial expression system assessed as residual activity at 1 uM by Kinomescan method relative to control
[7] = molecular target: Rho-associated protein kinase 1 (Homo sapiens) (UniProt Q13464); assay: Inhibition of wild-type human partial length ROCK1 (M1 to R415 residues) expressed in mammalian expression system assessed as residual activity at 1 uM by Kinomescan method relative to control
[8] = molecular target: Lymphokine-activated killer T-cell-originated protein kinase (Homo sapiens) (UniProt Q96KB5); assay: Inhibition of PBK (unknown origin) assessed as residual activity at 1 uM by Kinomescan method relative to control
[9] = molecular target: Mitogen-activated protein kinase kinase kinase 12 (Homo sapiens) (UniProt Q12852); assay: Inhibition of wild-type human full length DLK (M1 to P859 residues) expressed in mammalian expression system assessed as residual activity at 1 uM by Kinomescan method relative to control
[10] = In vivo inhibition of LRRK2 in Han-Wistar rat assessed as reduction in Ser935 phosphorylation in spleen at 10 to 100 mg/kg, po by Western blot analysis; type: functional; set-up: scale not given: the % may be the effect or the level left; conditions: dose 10-100 mg/kg
[11] = molecular target: Ephrin type-A receptor 3 (Homo sapiens) (UniProt P29320); assay: Inhibition of wild-type human partial length EPHA3 (D604 to K889 residues) expressed in bacterial expression system assessed as residual activity at 1 uM by Kinomescan method relative to control
[12] = molecular target: Serine/threonine-protein kinase Nek9 (Homo sapiens) (UniProt Q8TD19); assay: Inhibition of wild-type human partial length NEK9 (P32 to R328 residues) expressed in bacterial expression system assessed as residual activity at 1 uM by Kinomescan method relative to control
[13] = molecular target: Death-associated protein kinase 1 (Homo sapiens) (UniProt P53355); assay: Inhibition of wild-type human partial length DAPK1 (M1 to F296 residues) expressed in bacterial expression system assessed as residual activity at 1 uM by Kinomescan method relative to control
[14] = molecular target: Receptor tyrosine-protein kinase erbB-2 (Homo sapiens) (UniProt P04626); assay: Inhibition of wild-type human partial length ERBB2 (K646 to V1225 residues) expressed in mammalian expression system assessed as residual activity at 1 uM by Kinomescan method relative to control
Chain of Receptor tyrosine-protein kinase erbB-2 (Homo sapiens) (P04626 whole entry, the tested form may be a part): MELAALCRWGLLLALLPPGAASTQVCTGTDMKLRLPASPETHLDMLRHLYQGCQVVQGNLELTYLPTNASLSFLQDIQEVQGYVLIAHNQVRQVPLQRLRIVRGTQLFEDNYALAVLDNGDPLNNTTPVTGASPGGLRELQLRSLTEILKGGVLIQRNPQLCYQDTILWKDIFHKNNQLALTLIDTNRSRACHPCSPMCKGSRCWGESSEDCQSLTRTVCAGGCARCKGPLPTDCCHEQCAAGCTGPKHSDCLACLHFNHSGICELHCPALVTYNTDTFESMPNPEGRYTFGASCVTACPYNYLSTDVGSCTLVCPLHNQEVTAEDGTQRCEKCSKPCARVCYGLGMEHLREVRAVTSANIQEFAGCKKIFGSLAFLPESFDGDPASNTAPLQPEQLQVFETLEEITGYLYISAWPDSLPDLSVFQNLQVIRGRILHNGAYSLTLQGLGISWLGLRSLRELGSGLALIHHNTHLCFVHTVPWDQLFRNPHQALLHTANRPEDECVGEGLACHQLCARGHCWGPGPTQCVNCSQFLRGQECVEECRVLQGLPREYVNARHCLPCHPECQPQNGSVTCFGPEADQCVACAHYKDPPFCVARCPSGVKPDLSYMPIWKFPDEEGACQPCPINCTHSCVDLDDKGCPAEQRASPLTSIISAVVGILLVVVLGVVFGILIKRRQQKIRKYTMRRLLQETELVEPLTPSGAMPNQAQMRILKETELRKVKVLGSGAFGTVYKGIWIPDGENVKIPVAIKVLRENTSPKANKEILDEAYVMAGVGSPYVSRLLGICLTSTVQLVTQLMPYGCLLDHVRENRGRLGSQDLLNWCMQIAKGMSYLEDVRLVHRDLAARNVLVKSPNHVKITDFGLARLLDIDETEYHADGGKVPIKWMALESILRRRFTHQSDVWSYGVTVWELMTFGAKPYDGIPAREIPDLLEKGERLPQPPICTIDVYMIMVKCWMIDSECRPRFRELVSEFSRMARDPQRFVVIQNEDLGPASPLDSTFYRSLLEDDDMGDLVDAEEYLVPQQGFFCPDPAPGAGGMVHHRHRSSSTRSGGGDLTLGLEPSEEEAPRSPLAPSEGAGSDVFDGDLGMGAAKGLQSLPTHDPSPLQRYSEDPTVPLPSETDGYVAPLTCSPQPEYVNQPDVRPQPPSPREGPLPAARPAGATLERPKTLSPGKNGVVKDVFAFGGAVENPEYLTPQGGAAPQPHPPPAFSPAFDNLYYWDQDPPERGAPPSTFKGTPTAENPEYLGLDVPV

[15] = molecular target: Serine/threonine-protein kinase Nek1 (Homo sapiens) (UniProt Q96PY6); assay: Inhibition of wild-type human partial length NEK1 (M1 to K278 residues) expressed in bacterial expression system assessed as residual activity at 1 uM by Kinomescan method relative to control
[16] = molecular target: Serine/threonine-protein kinase MRCK alpha (Homo sapiens) (UniProt Q5VT25); assay: Inhibition of wild-type human partial length MRCKA (L57 to V418 residues) expressed in bacterial expression system assessed as residual activity at 1 uM by Kinomescan method relative to control
Chain of Serine/threonine-protein kinase MRCK alpha (Homo sapiens) (Q5VT25 whole entry, the tested form may be a part): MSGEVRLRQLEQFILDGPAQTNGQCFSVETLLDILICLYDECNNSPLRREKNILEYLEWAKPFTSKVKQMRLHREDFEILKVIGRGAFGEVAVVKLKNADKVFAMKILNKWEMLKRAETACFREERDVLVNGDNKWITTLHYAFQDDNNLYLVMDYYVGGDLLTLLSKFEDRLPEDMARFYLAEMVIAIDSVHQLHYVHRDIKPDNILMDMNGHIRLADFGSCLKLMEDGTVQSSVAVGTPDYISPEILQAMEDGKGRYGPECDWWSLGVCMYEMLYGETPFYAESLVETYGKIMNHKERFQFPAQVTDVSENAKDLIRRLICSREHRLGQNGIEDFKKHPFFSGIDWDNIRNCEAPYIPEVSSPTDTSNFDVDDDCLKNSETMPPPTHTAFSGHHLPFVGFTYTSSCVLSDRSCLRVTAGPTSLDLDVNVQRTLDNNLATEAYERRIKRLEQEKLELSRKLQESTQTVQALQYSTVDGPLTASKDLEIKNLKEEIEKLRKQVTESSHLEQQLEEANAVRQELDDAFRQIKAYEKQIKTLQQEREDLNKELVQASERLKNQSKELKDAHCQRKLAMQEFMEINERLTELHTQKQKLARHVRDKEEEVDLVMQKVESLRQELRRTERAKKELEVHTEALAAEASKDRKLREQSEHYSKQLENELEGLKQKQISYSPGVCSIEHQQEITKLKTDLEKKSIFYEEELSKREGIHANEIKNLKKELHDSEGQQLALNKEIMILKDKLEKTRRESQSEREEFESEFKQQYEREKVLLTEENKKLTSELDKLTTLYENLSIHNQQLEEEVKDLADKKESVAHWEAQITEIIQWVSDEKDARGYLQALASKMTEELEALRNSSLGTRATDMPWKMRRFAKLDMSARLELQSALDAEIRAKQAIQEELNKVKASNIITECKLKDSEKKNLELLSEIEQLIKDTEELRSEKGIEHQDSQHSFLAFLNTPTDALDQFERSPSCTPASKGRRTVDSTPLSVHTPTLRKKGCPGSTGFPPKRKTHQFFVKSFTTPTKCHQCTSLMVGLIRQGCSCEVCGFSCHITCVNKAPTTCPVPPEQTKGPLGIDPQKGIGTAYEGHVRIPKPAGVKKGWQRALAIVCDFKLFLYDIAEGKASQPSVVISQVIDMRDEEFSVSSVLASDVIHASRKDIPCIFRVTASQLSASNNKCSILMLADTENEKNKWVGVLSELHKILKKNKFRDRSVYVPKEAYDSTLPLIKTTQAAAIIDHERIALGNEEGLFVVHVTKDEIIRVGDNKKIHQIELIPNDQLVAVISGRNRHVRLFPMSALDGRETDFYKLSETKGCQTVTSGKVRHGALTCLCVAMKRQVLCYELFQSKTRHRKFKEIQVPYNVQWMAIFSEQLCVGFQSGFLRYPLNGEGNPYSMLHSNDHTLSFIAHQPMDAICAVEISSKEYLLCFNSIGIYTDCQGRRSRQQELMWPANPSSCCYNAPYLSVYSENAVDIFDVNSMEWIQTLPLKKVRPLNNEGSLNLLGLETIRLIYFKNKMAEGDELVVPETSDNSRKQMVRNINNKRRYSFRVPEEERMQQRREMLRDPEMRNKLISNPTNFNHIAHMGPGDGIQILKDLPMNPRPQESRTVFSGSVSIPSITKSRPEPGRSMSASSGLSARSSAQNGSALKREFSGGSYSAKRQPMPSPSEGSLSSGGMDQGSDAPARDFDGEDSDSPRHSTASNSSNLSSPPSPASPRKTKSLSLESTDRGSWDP

[17] = molecular target: Dual specificity tyrosine-phosphorylation-regulated kinase 3 (Homo sapiens) (UniProt O43781); assay: Inhibition of DYRK3 (unknown origin) assessed as residual activity at 1 uM by Kinomescan method relative to control
[18] = molecular target: Dual specificity mitogen-activated protein kinase kinase 6 (Homo sapiens) (UniProt P52564); assay: Inhibition of MKK6 (unknown origin) assessed as residual activity at 1 uM by Kinomescan method relative to control
Chain of Dual specificity mitogen-activated protein kinase kinase 6 (Homo sapiens) (P52564 whole entry, the tested form may be a part): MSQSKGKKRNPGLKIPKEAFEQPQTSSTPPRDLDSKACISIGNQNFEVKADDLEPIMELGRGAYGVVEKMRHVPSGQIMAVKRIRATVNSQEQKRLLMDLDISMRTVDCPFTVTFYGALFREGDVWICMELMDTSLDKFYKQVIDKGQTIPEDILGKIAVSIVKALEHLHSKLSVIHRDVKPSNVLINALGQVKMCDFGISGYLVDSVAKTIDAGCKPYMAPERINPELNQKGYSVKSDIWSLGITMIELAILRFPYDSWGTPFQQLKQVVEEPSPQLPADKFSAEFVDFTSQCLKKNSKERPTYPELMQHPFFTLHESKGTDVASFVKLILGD

[19] = molecular target: STE20/SPS1-related proline-alanine-rich protein kinase (Homo sapiens) (UniProt Q9UEW8); assay: Inhibition of wild-type human partial length STK39 (P43 to I357 residues) expressed in mammalian expression system assessed as residual activity at 1 uM by Kinomescan method relative to control
[20] = molecular target: Discoidin domain-containing receptor 2 (Homo sapiens) (UniProt Q16832); assay: Inhibition of wild-type human partial length DDR2 (V555 to E855 residues) expressed in mammalian expression system assessed as residual activity at 1 uM by Kinomescan method relative to control
[21] = molecular target: Myosin light chain kinase (Homo sapiens) (UniProt Q32MK0); assay: Inhibition of wild-type human partial length MLCK (D488 to K800 residues) expressed in bacterial expression system assessed as residual activity at 1 uM by Kinomescan method relative to control
Chain of Myosin light chain kinase (Homo sapiens) (Q32MK0 whole entry, the tested form may be a part): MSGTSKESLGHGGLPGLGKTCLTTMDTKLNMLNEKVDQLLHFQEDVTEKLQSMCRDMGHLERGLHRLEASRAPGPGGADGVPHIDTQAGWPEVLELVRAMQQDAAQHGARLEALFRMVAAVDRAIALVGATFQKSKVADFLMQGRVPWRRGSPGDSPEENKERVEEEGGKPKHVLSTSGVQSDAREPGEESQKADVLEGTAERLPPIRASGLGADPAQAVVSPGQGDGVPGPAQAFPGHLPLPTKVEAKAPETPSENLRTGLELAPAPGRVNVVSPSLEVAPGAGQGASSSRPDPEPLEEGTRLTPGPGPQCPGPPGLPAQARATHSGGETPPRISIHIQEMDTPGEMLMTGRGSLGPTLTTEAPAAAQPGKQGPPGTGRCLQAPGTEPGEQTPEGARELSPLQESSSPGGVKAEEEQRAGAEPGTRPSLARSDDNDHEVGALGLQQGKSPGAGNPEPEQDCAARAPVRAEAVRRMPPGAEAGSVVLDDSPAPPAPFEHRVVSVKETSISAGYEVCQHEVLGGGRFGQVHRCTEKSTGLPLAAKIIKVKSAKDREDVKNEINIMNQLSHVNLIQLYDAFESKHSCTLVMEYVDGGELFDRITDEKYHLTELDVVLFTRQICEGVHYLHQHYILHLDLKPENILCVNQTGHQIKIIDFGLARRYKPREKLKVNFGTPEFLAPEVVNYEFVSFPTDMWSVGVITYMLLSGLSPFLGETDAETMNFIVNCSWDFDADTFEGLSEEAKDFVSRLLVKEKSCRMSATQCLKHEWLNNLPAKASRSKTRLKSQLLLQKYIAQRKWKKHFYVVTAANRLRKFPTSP

[22] = molecular target: Ribosomal protein S6 kinase alpha-6 (Homo sapiens) (UniProt Q9UK32); assay: Inhibition of wild-type human partial length N-terminal RSK4 kinase domain 1 (M1 to E397 residues) expressed in mammalian expression system assessed as residual activity at 1 uM by Kinomescan method relative to control
[23] = Permeability ratio across apical side to basolateral side in MDCK2 cells transfected with Bacmam virus containing human BCRP at 3 uM after 90 mins in presence or absence of GF120918 by transwell assay; type: ADME, cell-based, Canis lupus familiaris; conditions: dog, mdck-ii, 1.5 h
[24] = molecular target: Mitogen-activated protein kinase 10 (Homo sapiens) (UniProt P53779); assay: Inhibition of wild-type human partial length JNK3 (V28 to Q422 residues) expressed in mammalian expression system assessed as residual activity at 1 uM by Kinomescan method relative to control
[25] = Solubility of the compound in FaSSIF measured after 4 hrs; type: physicochemical
[26] = molecular target: Beta-adrenergic receptor kinase 1 (Homo sapiens) (UniProt P25098); assay: Inhibition of wild-type human full length GRK2 (M1 to L689 residues) expressed in mammalian expression system assessed as residual activity at 1 uM by Kinomescan method relative to control
[27] = molecular target: CDK9/Cyclin K (Homo sapiens) (UniProt P50750+O75909); assay: Inhibition of wild-type human full length CDK9 (M1 to F372 residues)/cyclin K expressed in bacterial expression system assessed as residual activity at 1 uM by Kinomescan method relative to control

Work on `CCOc1nc(Nc2ccc(C(=O)N3CCOCC3)cc2OC)nc2[nH]ccc12` yielded an Activity [1] of 66.9%, an Activity [2] of 86.6% and an Activity [3] of 96.8%. It also gave an Activity [4] of 90.3%, an Activity [5] of 45.4% and an Activity [6] of 94.9%. The Activity [7] was 94.2%, the Activity [8] was 101% and the Activity [9] was 93.9%. It also gave an Activity [10] of 100%, an Activity [11] of 99.6% and an Activity [12] of 100%. The Activity [13] was 64.9%, the Activity [14] was 110% and the Activity [15] was 90.8%. For the same molecule, the Activity [16] was 99.4%, the Activity [17] was 96.4% and the Activity [18] was 63.1%. The Activity [19] was 97.5%, the Activity [20] was 95.7% and the Activity [21] was 15.8%. The Activity [22] was 87.5%, the Ratio [23] was 3.1 and the Activity [24] was 100%. The solubility at 4 h [25] was 127 µg/mL (≈ 320 µM), the Activity [26] was 100% and the Activity [27] was 103%.
